Measurements published in PubChem BioAssay AID200 (DTP/NCI, 2004).
“And” between values parts separate entries of the source, which are not always exact repeats. Identical values can stand only once. Inconclusive results and toxic doses are left out. Where a SMILES comes first, the peptide text is derived from it.

System: B6C3F1 mice, B16 melanoma ip, median survival T/C
Experiment: NCI In Vivo Anticancer Drug Screen. Data for tumor model B16 Melanoma (intraperitoneal) in B6C3F1 mice
Conditions: endpoint: median survival time, higher = longer survival
How it was run: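 Tumor-bearing mice received test compound; a separate group got vehicle only. Survival was then compared, with results reported as treated over control.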

[1] = dose: 3.12 mg/kg/injection, schedule: Q01DX009 (ip), vehicle: Klucel (hydroxypropylcellulose) (HPC)
[2] = dose: 6.25 mg/kg/injection, schedule: Q01DX009 (ip), vehicle: Klucel (hydroxypropylcellulose) (HPC)
[3] = dose: 12.5 mg/kg/injection, schedule: Q01DX009 (ip), vehicle: Klucel (hydroxypropylcellulose) (HPC)
[4] = dose: 25.0 mg/kg/injection, schedule: Q01DX009 (ip), vehicle: Klucel (hydroxypropylcellulose) (HPC)
[5] = dose: 50.0 mg/kg/injection, schedule: Q01DX009 (ip), vehicle: Klucel (hydroxypropylcellulose) (HPC)
[6] = dose: 100.0 mg/kg/injection, schedule: Q01DX009 (ip), vehicle: Klucel (hydroxypropylcellulose) (HPC)

NNC(=S)N/N=C/c1ccc([N+](=O)[O-])s1
T/C (dose: 0.78 mg/kg/injection, schedule: Q01DX009 (ip), vehicle: Klucel (hydroxypropylcellulose) (HPC)): 105 % of control | T/C (dose: 1.56 mg/kg/injection, schedule: Q01DX009 (ip), vehicle: Klucel (hydroxypropylcellulose) (HPC)): 99 % of control | T/C [1]: 104 % of control | T/C [2]: 104 % of control

COC(=O)NC1C(C)OC(OC2C/C=C(/C)C3C=CC4C(OC5CC(OC6CCC(OC7CC(O)C(OC8CCC(O)C(C)O8)C(C)O7)C(C)O6)C(OC(C)=O)C(C)O5)C(C)CC(C)C4C3(C)/C(O)=C3/C(=O)OC4(CC(C=O)=CC(O)C4/C=C\2C)C3=O)CC1(C)[N+](=O)[O-] (stereo unspecified)
T/C (dose: 1.25 mg/kg/injection, schedule: Q01DX009 (ip), vehicle: water): 114 % of control | T/C (dose: 1.69 mg/kg/injection, schedule: Q03HX024 (ip), vehicle: water): 165 % of control | T/C (dose: 2.4 mg/kg/injection, schedule: Q01DX005 (ip), vehicle: water): 124 % of control | T/C (dose: 2.43 mg/kg/injection, schedule: Q01DX005 (iv), vehicle: water): 110 % of control | T/C (dose: 2.5 mg/kg/injection, schedule: Q01DX009 (sc), vehicle: water): 98 % of control | T/C (dose: 2.53 mg/kg/injection, schedule: Q03HX024 (ip), vehicle: water): 186 % of control | T/C (dose: 3.0 mg/kg/injection, schedule: Q01DX005 (iv), vehicle: water): 99 % of control | T/C (dose: 3.4 mg/kg/injection, schedule: Q03HX008 (ip), vehicle: water): 161 % of control | T/C (dose: 3.6 mg/kg/injection, schedule: Q01DX005 (ip), vehicle: water): 160 % of control | T/C (dose: 3.63 mg/kg/injection, schedule: Q01DX005 (iv), vehicle: water): 114 % of control | T/C (dose: 3.77 mg/kg/injection, schedule: Q03HX024 (ip), vehicle: water): 173 % of control | T/C (dose: 4.5 mg/kg/injection, schedule: Q01DX005 (iv), vehicle: water): 105 % of control | T/C (dose: 4.5 mg/kg/injection, schedule: Q01DX009 (ip), vehicle: water): 161 % of control | T/C (dose: 5.0 mg/kg/injection, schedule: Q01DX009 (sc), vehicle: water): 97 % of control | T/C (dose: 5.08 mg/kg/injection, schedule: Q03HX008 (ip), vehicle: water): 171 % of control | T/C (dose: 5.3 mg/kg/injection, schedule: Q01DX005 (ip), vehicle: water): 177 % of control | T/C (dose: 5.4 mg/kg/injection, schedule: Q01DX005 (ip), vehicle: water): 165 % of control | T/C (dose: 5.41 mg/kg/injection, schedule: Q01DX005 (iv), vehicle: water): 108 % of control | T/C (dose: 5.63 mg/kg/injection, schedule: Q03HX024 (ip), vehicle: water): 203 % of control | T/C (dose: 6.0 mg/kg/injection, schedule: Q01DX009 (sc), vehicle: water): 101 % of control | T/C (dose: 6.7 mg/kg/injection, schedule: Q01DX005 (iv), vehicle: water): 105 % of control | T/C (dose: 6.7 mg/kg/injection, schedule: Q01DX009 (ip), vehicle: water): 165 % of control | T/C (dose: 6.74 mg/kg/injection, schedule: Q01DX009 (oral), vehicle: water): 98 % of control | T/C (dose: 8.0 mg/kg/injection, schedule: Q01DX005 (ip), vehicle: water): 153 % of control and 159 % of control | T/C (dose: 8.0 mg/kg/injection, schedule: Q01DX005 (iv), vehicle: water): 108 % of control and 120 % of control | T/C (dose: 8.08 mg/kg/injection, schedule: Q01DX005 (iv), vehicle: water): 98 % of control | T/C (dose: 8.1 mg/kg/injection, schedule: Q01DX005 (ip), vehicle: water): 175 % of control | T/C (dose: 9.0 mg/kg/injection, schedule: Q01DX009 (sc), vehicle: water): 109 % of control | T/C (dose: 9.1 mg/kg/injection, schedule: Q04DX003 (ip), vehicle: water): 177 % of control | T/C (dose: 10.0 mg/kg/injection, schedule: Q01DX005 (iv), vehicle: water): 103 % of control | T/C (dose: 10.0 mg/kg/injection, schedule: Q01DX009 (sc), vehicle: water): 100 % of control | T/C (dose: 10.05 mg/kg/injection, schedule: Q01DX009 (oral), vehicle: water): 102 % of control | T/C (dose: 12.0 mg/kg/injection, schedule: Q01DX005 (ip), vehicle: water): 171 % of control and 197 % of control | T/C (dose: 12.0 mg/kg/injection, schedule: Q01DX005 (iv), vehicle: water): 108 % of control and 105 % of control | T/C (dose: 12.06 mg/kg/injection, schedule: Q01DX001 (iv), vehicle: water): 116 % of control | T/C (dose: 12.1 mg/kg/injection, schedule: Q01DX005 (iv), vehicle: water): 110 % of control | T/C (dose: 13.0 mg/kg/injection, schedule: Q01DX005 (ip), vehicle: water): 162 % of control | T/C (dose: 13.0 mg/kg/injection, schedule: Q01DX009 (sc), vehicle: water): 101 % of control | T/C (dose: 13.5 mg/kg/injection, schedule: Q04DX003 (ip), vehicle: water): 165 % of control | T/C (dose: 15.0 mg/kg/injection, schedule: Q01DX005 (iv), vehicle: water): 110 % of control | T/C (dose: 15.0 mg/kg/injection, schedule: Q01DX009 (ip), vehicle: water): 180 % of control | T/C (dose: 15.0 mg/kg/injection, schedule: Q01DX009 (oral), vehicle: water): 103 % of control | T/C (dose: 18.0 mg/kg/injection, schedule: Q01DX001 (ip), vehicle: water): 191 % of control | T/C (dose: 18.0 mg/kg/injection, schedule: Q01DX005 (ip), vehicle: water): 112 % of control | T/C (dose: 18.0 mg/kg/injection, schedule: Q01DX005 (iv), vehicle: water): 110 % of control and 97 % of control and 104 % of control | T/C (dose: 18.1 mg/kg/injection, schedule: Q01DX005 (ip), vehicle: water): 159 % of control | T/C (dose: 20.0 mg/kg/injection, schedule: Q01DX005 (ip), vehicle: water): 121 % of control | T/C (dose: 20.0 mg/kg/injection, schedule: Q01DX009 (sc), vehicle: water): 95 % of control and 103 % of control | T/C (dose: 20.2 mg/kg/injection, schedule: Q04DX003 (ip), vehicle: water): 178 % of control | T/C (dose: 22.39 mg/kg/injection, schedule: Q01DX009 (oral), vehicle: water): 96 % of control | T/C (dose: 27.0 mg/kg/injection, schedule: Q01DX001 (ip), vehicle: water): 203 % of control | T/C (dose: 27.0 mg/kg/injection, schedule: Q01DX001 (iv), vehicle: water): 108 % of control | T/C (dose: 27.0 mg/kg/injection, schedule: Q01DX005 (iv), vehicle: water): 112 % of control and 106 % of control | T/C (dose: 30.0 mg/kg/injection, schedule: Q01DX009 (sc), vehicle: water): 97 % of control | T/C (dose: 33.41 mg/kg/injection, schedule: Q01DX009 (oral), vehicle: water): 101 % of control | T/C (dose: 40.5 mg/kg/injection, schedule: Q01DX001 (ip), vehicle: water): 226 % of control | T/C (dose: 40.5 mg/kg/injection, schedule: Q01DX001 (iv), vehicle: water): 121 % of control | T/C (dose: 49.87 mg/kg/injection, schedule: Q01DX009 (oral), vehicle: water): 100 % of control

CCC(C)n1ncc2c(N(C)C)ncnc21 (stereo unspecified)
T/C (dose: 3.12 mg/kg/injection, schedule: Q01DX009 (ip), vehicle: saline): 98 % of control | T/C (dose: 6.25 mg/kg/injection, schedule: Q01DX009 (ip), vehicle: saline): 95 % of control | T/C (dose: 12.5 mg/kg/injection, schedule: Q01DX009 (ip), vehicle: saline): 95 % of control

O=C(C#Cc1ccccc1)c1ccccc1
T/C [1]: 100 % of control and 102 % of control | T/C [2]: 92 % of control and 102 % of control | T/C [3]: 97 % of control and 101 % of control | T/C [4]: 90 % of control and 94 % of control

O=C(O)CNC(=O)C(Cc1ccccc1)NC(=O)OCc1ccccc1 (stereo unspecified) (HELM PEPTIDE1{[O=C(OCc1ccccc1)[*:2]].[O=C(C(Cc1ccccc1)N[*:1])[*:2]].G}$$$$V2.0)
T/C [4]: 94 % of control | T/C [5]: 102 % of control | T/C [6]: 86 % of control and 94 % of control

O=C(O)C1(NO)CCCCC1
T/C [3]: 103 % of control and 105 % of control | T/C [4]: 111 % of control and 98 % of control | T/C [5]: 111 % of control and 105 % of control | T/C [6]: 110 % of control and 107 % of control | T/C (dose: 200.0 mg/kg/injection, schedule: Q01DX009 (ip), vehicle: Klucel (hydroxypropylcellulose) (HPC)): 103 % of control and 108 % of control | T/C (dose: 400.0 mg/kg/injection, schedule: Q01DX009 (ip), vehicle: Klucel (hydroxypropylcellulose) (HPC)): 113 % of control and 106 % of control

COc1cc(-c2ccc(Nc3ccccc3C(=O)O)c(OC)c2)ccc1Nc1ccccc1C(=O)O
T/C (dose: 100.0 mg/kg/injection, schedule: Q01DX009 (ip), vehicle: suspension in saline): 94 % of control | T/C (dose: 200.0 mg/kg/injection, schedule: Q01DX009 (ip), vehicle: suspension in saline): 99 % of control | T/C (dose: 400.0 mg/kg/injection, schedule: Q01DX009 (ip), vehicle: suspension in saline): 98 % of control
